Data reported in ChEMBL document CHEMBL1135754, “Arylsulfonamidothiazoles as a new class of potential antidiabetic drugs. Discovery of potent and selective inhibitors of the 11beta-hydroxysteroid dehydrogenase type 1” (J Med Chem, 2002).
The source made the active and inactive calls. The calls are words filed in the database; no cut-off is given here.

What was measured:
[1] = target: T1, 11-beta-hydroxysteroid dehydrogenase 1 (Mus musculus, UniProt P50172); experiment: In vitro inhibitory activity against mouse 11 beta hydroxysteroid dehydrogenase type 1 using scintillation proximity assay (SPA)
[2] = target: 11-beta-hydroxysteroid dehydrogenase type 2 (Homo sapiens, UniProt P80365); experiment: Ability to convert [3H]cortisol to the tritium labeled cortisone in the presence of human 11 beta hydroxysteroid dehydrogenase type 2
[3] = target: 11-beta-hydroxysteroid dehydrogenase type 2 (Mus musculus) (UniProt P51661); experiment: Inhibitory activity against mouse 11 beta hydroxysteroid dehydrogenase type 2 at a concentration of 0.2 mM; NI means no inhibition
[4] = target: T1, 11-beta-hydroxysteroid dehydrogenase 1; experiment: In vitro inhibitory activity against mouse 11 beta hydroxysteroid dehydrogenase type 1 using scintillation proximity assay (SPA).

Sequence of 11-beta-hydroxysteroid dehydrogenase type 2 (P80365 whole entry, looked up): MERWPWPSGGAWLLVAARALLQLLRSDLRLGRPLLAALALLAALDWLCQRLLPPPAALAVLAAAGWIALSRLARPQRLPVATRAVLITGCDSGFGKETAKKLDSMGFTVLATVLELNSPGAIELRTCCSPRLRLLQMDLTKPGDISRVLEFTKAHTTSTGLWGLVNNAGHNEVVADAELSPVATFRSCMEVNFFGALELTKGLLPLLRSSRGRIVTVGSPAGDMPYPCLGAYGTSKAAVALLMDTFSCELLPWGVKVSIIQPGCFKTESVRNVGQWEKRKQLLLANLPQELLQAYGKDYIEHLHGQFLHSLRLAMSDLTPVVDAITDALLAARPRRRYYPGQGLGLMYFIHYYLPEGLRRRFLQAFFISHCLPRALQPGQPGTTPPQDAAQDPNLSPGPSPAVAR
Sequence of 11-beta-hydroxysteroid dehydrogenase type 2 (Mus musculus) (P51661 whole entry, looked up): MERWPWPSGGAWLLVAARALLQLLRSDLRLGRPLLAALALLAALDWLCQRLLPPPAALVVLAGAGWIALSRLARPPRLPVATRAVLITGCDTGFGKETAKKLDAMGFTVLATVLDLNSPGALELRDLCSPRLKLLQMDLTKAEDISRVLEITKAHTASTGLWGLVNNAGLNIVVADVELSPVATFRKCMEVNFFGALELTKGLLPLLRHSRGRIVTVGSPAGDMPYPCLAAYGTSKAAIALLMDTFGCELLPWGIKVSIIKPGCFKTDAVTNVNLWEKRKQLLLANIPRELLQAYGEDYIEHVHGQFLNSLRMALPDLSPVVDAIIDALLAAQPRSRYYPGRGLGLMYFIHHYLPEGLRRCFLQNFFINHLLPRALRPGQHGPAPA

Question: Which results are given for `Cc1c(Cl)cccc1S(=O)(=O)Nc1nc(CC(=O)N2CCN(C)CC2)cs1`?
Answer: IC50 [1]: […]; IC50 [2]: > 10000 nM; NI [3]: inactive

Question: Which results are given for `CCN(CC)C(=O)Cc1csc(NS(=O)(=O)c2cccc(Cl)c2C)n1`?
Answer: IC50 [4]: […]; IC50 [2]: > 10000 nM
